Assay results from patent US9365584B2, “Thieno [2,3-B] pyridinedione activators of AMPK and therapeutic uses thereof” (Poxel, priority 2009, dated 2016).

Tested on: AMPK
Assay: AMPK enzyme activity assay (Delfia technology, AMARA peptide substrate)
Assay type: biochemical
Details: compound at 30 μM vs AMP at 200 μM
Protocol: The following biological test allows the determination of the efficacy of compounds of formula (1) onto AMPK protein.
AMPK enzyme activities were assayed by using a Delfia technology. AMPK enzyme activities were carried out in microtiter plates in the presence of a synthetic peptide substrate (AMARAASAAALARRR, the “AMARA” peptide) and activators in serial dilutions. Reactions were initiated by the addition of AMPK. Enzyme activity was assayed by using an anti-phosphoserine antibody to measure the quantity of phosphate incorporated into the AMARAA.
No: Number of the molecule
Activity: Ratio between the % of control (basal activity) of compound of formula (1) at 30 μM and the % of control (basal activity) of AMP (natural substrate) at 200 μM.

Compound	Activity: Ratio between the % of control (basal activity) of compound of formula (1) at 30 μM and the % of control (basal activity) of AMP (natural substrate) at 200 μM
2,5-difluoro-3-(2-naphthyl)-5-phenyl-7H-thieno[2,3-b]pyridine-4,6-dione [No 162]	C (C≧75%)
2-chloro-5-(3-methoxyphenyl)-5-methyl-3-(p-tolyl)-7H-thieno[2,3-b]pyridine-4,6-dione [No 209]	A (0%<A<50%)
2-chloro-5-fluoro-3-(5-fluoro-2-hydroxy-phenyl)-5-phenyl-7H-thieno[2,3-b]pyridine-4,6-dione [No 221]	C (C≧75%)
2-chloro-5-methyl-3,5-bis(p-tolyl)-7H-thieno[2,3-b]pyridine-4,6-dione [No 154]	A (0%<A<50%)
5-fluoro-3-(2-naphthyl)-5-phenyl-7H-thieno[2,3-b]pyridine-4,6-dione [No 161]	C (C≧75%)
CC1(c2ccccc2)C(=O)Nc2sc(Cl)c(-c3ccc4ccccc4c3O)c2C1=O (centres unmarked) [No 7, 2-chloro-3-(1-hydroxy-2-naphthyl)-5-methyl-5-phenyl-7H-thieno[2,3-b]pyridine-4,6-dione]	A (0%<A<50%)
CC1(c2ccccc2)C(=O)Nc2scc(-c3ccc4ccccc4c3O)c2C1=O (centres unmarked) [No 8, 3-(1-hydroxy-2-naphthyl)-5-methyl-5-phenyl-7H-thieno[2,3-b]pyridine-4,6-dione]	A (0%<A<50%)
O=C1Nc2scc(-c3ccccc3)c2C(=O)C1(c1ccccc1)c1ccccc1 [No 9, 3,5,5-triphenyl-7H-thieno[2,3-b]pyridine-4,6-dione]	A (0%<A<50%)
O=C1Nc2scc(-c3ccccc3)c2C(=O)C1(Cc1ccccc1)c1ccccc1 (centres unmarked) [No 10, 5-benzyl-3,5-diphenyl-7H-thieno[2,3-b]pyridine-4,6-dione]	A (0%<A<50%)
CCC1(c2ccccc2)C(=O)Nc2scc(-c3ccccc3)c2C1=O (centres unmarked) [No 11, 5-ethyl-3,5-diphenyl-7H-thieno[2,3-b]pyridine-4,6-dione]	A (0%<A<50%)
CCOc1c(F)ccc(-c2c(Cl)sc3c2C(=O)C(C)(c2ccccc2)C(=O)N3)c1OC (centres unmarked) [No 12, 2-chloro-3-(3-ethoxy-4-fluoro-2-methoxy-phenyl)-5-methyl-5-phenyl-7H-thieno[2,3-b]pyridine-4,6-dione]	A (0%<A<50%)
COc1c(-c2c(Cl)sc3c2C(=O)C(C)(c2ccccc2)C(=O)N3)ccc(F)c1F (centres unmarked) [No 13, 2-chloro-3-(3,4-difluoro-2-methoxy-phenyl)-5-methyl-5-phenyl-7H-thieno[2,3-b]pyridine-4,6-dione]	A (0%<A<50%)
CC1(c2ccccc2)C(=O)Nc2scc(-c3ccc(F)c(F)c3O)c2C1=O (centres unmarked) [No 14, 3-(3,4-difluoro-2-hydroxy-phenyl)-5-methyl-5-phenyl-7H-thieno[2,3-b]pyridine-4,6-dione]	A (0%<A<50%)
COc1ccc(C2(C)C(=O)Nc3sc(Cl)c(-c4ccc(F)cc4O)c3C2=O)cc1 (centres unmarked) [No 15, 2-chloro-3-(4-fluoro-2-hydroxy-phenyl)-5-(4-methoxy-phenyl)-5-methyl-7H-thieno[2,3-b]pyridine-4,6-dione]	A (0%<A<50%)
CCc1ccc(-c2csc3c2C(=O)C(C)(c2ccccc2)C(=O)N3)c(OC)c1 (centres unmarked) [No 16, 3-(4-ethyl-2-methoxy-phenyl)-5-methyl-5-phenyl-7H-thieno[2,3-b]pyridine-4,6-dione]	A (0%<A<50%)
CCOc1ccc(C2(C)C(=O)Nc3scc(-c4ccc(C)cc4F)c3C2=O)cc1 (centres unmarked) [No 17, 5-(4-ethoxyphenyl)-3-(2-fluoro-4-methyl-phenyl)-5-methyl-7H-thieno[2,3-b]pyridine-4,6-dione]	A (0%<A<50%)

Compound	Activity: Ratio between the % of control (basal activity) of compound of formula (1) at 30 μM and the % of control (basal activity) of AMP (natural substrate) at 200 μM
CC1(C)C(=O)Nc2scc(-c3ccccc3)c2C1=O [No 18, 5,5-dimethyl-3-phenyl-7H-thieno[2,3-b]pyridine-4,6-dione]	A (0%<A<50%)
CCOc1ccc(C2(C)C(=O)Nc3sc(C)c(-c4ccc(F)c(C)c4O)c3C2=O)cc1 (centres unmarked) [No 19, 5-(4-ethoxyphenyl)-3-(4-fluoro-2-hydroxy-3-methyl-phenyl)-2,5-dimethyl-7H-thieno[2,3-b]pyridine-4,6-dione]	A (0%<A<50%)
O=C1Nc2sc(Cl)c(-c3ccccc3)c2C(=O)C1(F)c1ccccc1 (centres unmarked) [No 20, 2-chloro-5-fluoro-3,5-diphenyl-7H-thieno[2,3-b]pyridine-4,6-dione]	C (C≧75%)
CCOc1ccc(C2(C)C(=O)Nc3scc(-c4ccc(Cl)cc4OC)c3C2=O)cc1 (centres unmarked) [No 21, 3-(4-chloro-2-methoxy-phenyl)-5-(4-ethoxyphenyl)-5-methyl-7H-thieno[2,3-b]pyridine-4,6-dione]	A (0%<A<50%)
CCOc1ccc(C2(C)C(=O)Nc3sc(Cl)c(-c4ccc(C)cc4F)c3C2=O)cc1 (centres unmarked) [No 22, 2-chloro-5-(4-ethoxyphenyl)-3-(2-fluoro-4-methyl-phenyl)-5-methyl-7H-thieno[2,3-b]pyridine-4,6-dione]	B (50%≦B<75%)
CCOc1ccc(C2(C)C(=O)Nc3scc(-c4ccc(C)c(F)c4O)c3C2=O)cc1 (centres unmarked) [No 23, 5-(4-ethoxyphenyl)-3-(3-fluoro-2-hydroxy-4-methyl-phenyl)-5-methyl-7H-thieno[2,3-b]pyridine-4,6-dione]	A (0%<A<50%)
Cc1ccc(-c2csc3c2C(=O)C(C)(c2ccc(O)cc2)C(=O)N3)c(O)c1F (centres unmarked) [No 24, 3-(3-fluoro-2-hydroxy-4-methyl-phenyl)-5-(4-hydroxy-phenyl)-5-methyl-7H-thieno[2,3-b]pyridine-4,6-dione]	A (0%<A<50%)
O=C1Nc2scc(-c3ccc(F)cc3O)c2C(=O)C1(F)c1ccccc1 (centres unmarked) [No 25, 5-fluoro-3-(4-fluoro-2-hydroxy-phenyl)-5-phenyl-7H-thieno[2,3-b]pyridine-4,6-dione]	C (C≧75%)
CC1(c2ccccc2)C(=O)Nc2sc(Cl)c(-c3ccc(F)cc3)c2C1=O (centres unmarked) [No 26, 2-chloro-3-(4-fluorophenyl)-5-methyl-5-phenyl-7H-thieno[2,3-b]pyridine-4,6-dione]	A (0%<A<50%)
CC1(c2cccc(F)c2)C(=O)Nc2sc(Cl)c(-c3ccccc3)c2C1=O (centres unmarked) [No 27, 2-chloro-5-(3-fluorophenyl)-5-methyl-3-phenyl-7H-thieno[2,3-b]pyridine-4,6-dione]	A (0%<A<50%)
CC1(c2ccccc2F)C(=O)Nc2sc(Cl)c(-c3ccccc3)c2C1=O (centres unmarked) [No 28, 2-chloro-5-(2-fluorophenyl)-5-methyl-3-phenyl-7H-thieno[2,3-b]pyridine-4,6-dione]	A (0%<A<50%)
CC1(c2ccccc2)C(=O)Nc2sc(Cl)c(-c3cccc(F)c3)c2C1=O (centres unmarked) [No 29, 2-chloro-3-(3-fluorophenyl)-5-methyl-5-phenyl-7H-thieno[2,3-b]pyridine-4,6-dione]	C (C≧75%)
CC1(c2ccccc2)C(=O)Nc2sc(Cl)c(-c3ccccc3F)c2C1=O (centres unmarked) [No 30, 2-chloro-3-(2-fluorophenyl)-5-methyl-5-phenyl-7H-thieno[2,3-b]pyridine-4,6-dione]	A (0%<A<50%)
Cc1ccc(C2(C)C(=O)Nc3sc(Cl)c(-c4ccccc4)c3C2=O)cc1 (centres unmarked) [No 31, 2-chloro-5-methyl-3-phenyl-5-(p-tolyl)-7H-thieno[2,3-b]pyridine-4,6-dione]	A (0%<A<50%)
CC1(c2ccc(F)cc2)C(=O)Nc2sc(Cl)c(-c3ccccc3)c2C1=O (centres unmarked) [No 32, 2-chloro-5-(4-fluorophenyl)-5-methyl-3-phenyl-7H-thieno[2,3-b]pyridine-4,6-dione]	A (0%<A<50%)
Cc1cccc(C2(C)C(=O)Nc3sc(Cl)c(-c4ccccc4)c3C2=O)c1 (centres unmarked) [No 33, 2-chloro-5-methyl-5-(m-tolyl)-3-phenyl-7H-thieno[2,3-b]pyridine-4,6-dione]	A (0%<A<50%)
